Measured values reported in ChEMBL document CHEMBL4483862, “Open-source discovery of chemical leads for next-generation chemoprotective antimalarials” (2018).

Test system: Plasmodium berghei
Test: Luciferase/luciferin-expressing antifolate-resistant parasites were used to infect a culture of HepG2 cells that were pre-incubated with compounds. Infected hepatocytes emit light due to the luciferase reaction. Assay results are presented as the percent inhibition of light emission compared to control. […]
Format: functional
Conditions: sporozoite; for IC90: read-out: LUCIFERASE INFECTION ASSAY - IC90
[1] = read-out: LUCIFERASE INFECTION ASSAY - IC50

SMILES	IC90 [µM]	IC50 [1] [µM]	also measured
Cc1c(Cl)cccc1-n1c(SCC(=O)N(CCC#N)c2ccccc2)nc2ccccc2c1=O	> 10	–	IC50 (PBLUC_HILL_SLOPE 15.9, PBLUC_R_SQUARED 0.269, read-out: LUCIFERASE INFECTION ASSAY - IC50): 9.73 µM
COc1ccc(OCC(O)CNCC23CC4CC(CC(C4)C2)C3)c(C(C)(C)C)c1 (stereo unspecified)	9.84	–	IC50 (PBLUC_HILL_SLOPE 14.7, PBLUC_R_SQUARED 0.42, read-out: LUCIFERASE INFECTION ASSAY - IC50): 8.48 µM
CCc1ccc(NC(=O)c2cc(OC)c(OC)c(OC)c2)cc1[N+](=O)[O-]	> 10	–	IC50 (HEPG2TOX_HILL_SLOPE 7.15, HEPG2TOX_R_SQUARED 0.493, PBLUC_HILL_SLOPE 1.31, PBLUC_R_SQUARED 0.625, read-out: LUCIFERASE INFECTION ASSAY - IC50): 6.01 µM
CC(Sc1nnc(-c2ccc(C(C)(C)C)cc2)o1)C(=O)NCc1ccccc1Cl (stereo unspecified)	> 10	–	IC50 (PBLUC_HILL_SLOPE 1.93, PBLUC_R_SQUARED 0.876, read-out: LUCIFERASE INFECTION ASSAY - IC50): 4.14 µM
NS(=O)(=O)c1ccc(CCNc2nn3c(-c4cccc(C(F)(F)F)c4)cnc3s2)cc1	> 7.06	–	IC50 (FFLUC_HILL_SLOPE 7.49, FFLUC_R_SQUARED 0.26, read-out: LUCIFERASE INFECTION ASSAY - IC50): > 7.06 µM
Clc1ccc(-c2csc3ncnc(Sc4nnnn4C4CC4)c23)cc1	> 10	–	IC50 (HEPG2TOX_HILL_SLOPE 2.99, HEPG2TOX_R_SQUARED 0.963, PBLUC_HILL_SLOPE 2.19, PBLUC_R_SQUARED 0.132, read-out: LUCIFERASE INFECTION ASSAY - IC50): 8.41 µM
CC(NC(=O)c1nc(-c2ccccc2)n(-c2ccccc2)n1)C12CC3CC(CC(C3)C1)C2 (stereo unspecified)	5.28	–	IC50 (HEPG2TOX_HILL_SLOPE 3.46, HEPG2TOX_R_SQUARED 0.871, PBLUC_HILL_SLOPE 90.3, PBLUC_R_SQUARED 0.516, read-out: LUCIFERASE INFECTION ASSAY - IC50): 5.15 µM
CCc1ccc(-n2nnnc2-c2cnc(N)nc2-c2ccccc2)cc1	1.61	–	IC50 (HEPG2TOX_HILL_SLOPE 0.931, HEPG2TOX_R_SQUARED 0.943, PBLUC_HILL_SLOPE 1.76, PBLUC_R_SQUARED 0.648, read-out: LUCIFERASE INFECTION ASSAY - IC50): 0.463 µM
Cc1nc2sccn2c1C(=O)c1ccc(NS(=O)(=O)c2cc(C(=O)O)n(C)c2)cc1	> 10	> 10	–
Cc1nc2nc(C(F)(F)F)nn2c(C)c1CCC(=O)NCC(c1cccs1)N1CCC(C)CC1 (stereo unspecified)	> 10	–	IC50 (PBLUC_HILL_SLOPE 1.88, PBLUC_R_SQUARED 0.575, read-out: LUCIFERASE INFECTION ASSAY - IC50): 6.51 µM
O=C(NC1CCCC1)c1ccc(-c2cn3c(-c4ccc5ncccc5c4)cnc3cn2)cc1	> 7.61	> 7.61	–
CC(C)(C)c1ccccc1NC(=O)Nc1nc(C(N)Cc2ccccc2)cs1 (stereo unspecified)	7.79	4.59	–
NC(=O)c1c(NC(=O)NCc2cccnc2)sc2c1CCC2	> 10.4	–	IC50 (HEPG2TOX_HILL_SLOPE 6.58, HEPG2TOX_R_SQUARED 0.0674, read-out: LUCIFERASE INFECTION ASSAY - IC50): > 10.4 µM
COc1ccc(OC)c(NC(=O)c2cc(-c3cc(Cl)ccc3O)[nH]n2)c1	> 8.83	–	IC50 (HEPG2TOX_HILL_SLOPE 2.05, HEPG2TOX_R_SQUARED 0.718, PBLUC_HILL_SLOPE 2.04, PBLUC_R_SQUARED 0.622, read-out: LUCIFERASE INFECTION ASSAY - IC50): 4.02 µM
CC(C)(C)NC(=O)c1cc(-c2ccccc2Cl)nc2ccccc12	> 9.74	> 9.74	–
CC(C)N(C(=O)CN1CCN(c2ccccc2Cl)CC1)c1ccc(Nc2ccccc2)cc1	> 10	4.84	–
O=c1c2ccccc2sc2nc(-c3ccccc3)n(Cc3ccccc3)c(=O)c12	> 8.32	> 8.32	–
CC(C)(C)C(=O)Nc1ccc(-c2csc(-n3nccc3C(F)(F)F)n2)cc1	> 10	–	IC50 (PBLUC_HILL_SLOPE 6.43, PBLUC_R_SQUARED 0.126, read-out: LUCIFERASE INFECTION ASSAY - IC50): 8.51 µM
Nc1c(C(=O)CN2CCN(C(c3ccc(F)cc3)c3ccc(F)cc3)CC2)c(=O)[nH]c(=O)n1Cc1ccccc1	> 10	> 10	–
CCCCCCCCCCCCCCCCCC1=[N+](c2ccccc2)C(Nc2ccccc2)CN1c1ccccc1 (stereo unspecified)	> 5.61	–	IC50 (HEPG2TOX_HILL_SLOPE 13, HEPG2TOX_R_SQUARED 0.218, read-out: LUCIFERASE INFECTION ASSAY - IC50): > 5.61 µM
COc1ccc(CNC(N)=O)cc1	> 18.3	> 18.3	–
O=C(c1cc(-c2ccccc2)n[nH]1)N1CCN(c2ccccc2F)CC1	> 10	> 10	–

SMILES	IC90 [µM]	IC50 [1] [µM]	also measured
O=C(Nc1ccc(Cl)cc1)Nc1ccccc1SCc1ncc(C(F)(F)F)cc1Cl	> 6.99	–	IC50 (HEPG2TOX_HILL_SLOPE 7.43, HEPG2TOX_R_SQUARED 0.87, PBLUC_HILL_SLOPE 2.47, PBLUC_R_SQUARED 0.266, read-out: LUCIFERASE INFECTION ASSAY - IC50): 4.63 µM
Cc1ccc(Nc2nc(CSc3nc4ccccc4c(=O)n3CCCCCCC(C)C)cs2)cc1	> 10	–	IC50 (PBLUC_HILL_SLOPE 4.69, PBLUC_R_SQUARED 0.352, read-out: LUCIFERASE INFECTION ASSAY - IC50): 7.63 µM
O=C(c1ccccc1)C(Sc1nnc(Cc2cccs2)n1CCc1ccccc1)c1ccccc1 (stereo unspecified)	> 10	> 10	–
CC(C)N(C(=O)CSc1nnnn1C)c1ccc(Nc2ccccc2)cc1	> 10	–	IC50 (PBLUC_HILL_SLOPE 2.1, PBLUC_R_SQUARED 0.364, read-out: LUCIFERASE INFECTION ASSAY - IC50): > 10 µM
Cc1csc(NC(=O)c2cc(C3CC3)n[nH]2)n1	> 10	–	IC50 (FFLUC_HILL_SLOPE 1.65, FFLUC_R_SQUARED 0.902, read-out: LUCIFERASE INFECTION ASSAY - IC50): > 10 µM
O=C(COc1ccccc1CSc1ccc(Cl)cc1)N/N=C/c1ccccc1Cl	> 7.41	> 7.41	–
Oc1c(C(c2ccccc2Cl)N2CCCC2)ccc2cccnc12 (stereo unspecified)	4.97	–	IC50 (HEPG2TOX_HILL_SLOPE 12.7, HEPG2TOX_R_SQUARED 0.0314, PBLUC_HILL_SLOPE 8.39, PBLUC_R_SQUARED 0.486, read-out: LUCIFERASE INFECTION ASSAY - IC50): 3.83 µM
O=C(CCN1c2ccccc2Sc2ccccc21)Nc1ccc2ccccc2c1	> 10	> 10	–
COc1ccc(Nc2ccn3ncc(-c4ccc(OC)c(OC)c4)c3n2)cn1	1.73	–	IC50 (HEPG2TOX_HILL_SLOPE 1.44, HEPG2TOX_R_SQUARED 0.951, PBLUC_HILL_SLOPE 2.71, PBLUC_R_SQUARED 0.798, read-out: LUCIFERASE INFECTION ASSAY - IC50): 0.768 µM
Cc1ccc(-c2nc(NC(=O)c3ccc4c(=O)[nH]c(=O)n(C)c4n3)sc2-c2ccc(C)cc2)cc1	4.58	–	IC50 (FFLUC_HILL_SLOPE 5.14, FFLUC_R_SQUARED 0.303, PBLUC_HILL_SLOPE 8.87, PBLUC_R_SQUARED 0.194, read-out: LUCIFERASE INFECTION ASSAY - IC50): 3.57 µM
C/N=c1\scc(-c2ccc(OC(F)F)cc2)n1/N=C/c1cccs1	2.72	–	IC50 (FFLUC_HILL_SLOPE 2.65, FFLUC_R_SQUARED 0.0605, PBLUC_HILL_SLOPE 1.58, PBLUC_R_SQUARED 0.688, read-out: LUCIFERASE INFECTION ASSAY - IC50): 0.676 µM
COc1cccc(-c2cc3c(Nc4cccc(C(C)C)c4)nccc3[nH]2)c1	2.26	–	IC50 (HEPG2TOX_HILL_SLOPE 2.2, HEPG2TOX_R_SQUARED 0.959, PBLUC_HILL_SLOPE 4.36, PBLUC_R_SQUARED 0.354, read-out: LUCIFERASE INFECTION ASSAY - IC50): 1.36 µM
C=Cc1c(SC)sc(C(=O)O)c1C	> 15.4	> 15.4	–
COc1cccc(-c2cc3c(Nc4ccc(Oc5ccccc5)cc4)nccc3[nH]2)c1	4	–	IC50 (HEPG2TOX_HILL_SLOPE 11.8, HEPG2TOX_R_SQUARED 0.973, PBLUC_HILL_SLOPE 14.2, PBLUC_R_SQUARED 0.35, read-out: LUCIFERASE INFECTION ASSAY - IC50): 3.43 µM
Cc1onc(-c2ccccc2)c1C(=O)NCC1COCCO1 (stereo unspecified)	> 10	> 10	–
CN(C)c1ccc(CNc2ncnc3ccccc23)cc1	> 10	–	IC50 (HEPG2TOX_HILL_SLOPE 1.21, HEPG2TOX_R_SQUARED 0.974, PBLUC_HILL_SLOPE 1.4, PBLUC_R_SQUARED 0.594, read-out: LUCIFERASE INFECTION ASSAY - IC50): 4.35 µM
O=C(/C(=N/Nc1ccc(OC(F)(F)F)cc1)C(=O)C(F)(F)F)c1cccs1	> 8.04	–	IC50 (PBLUC_HILL_SLOPE 12.2, PBLUC_R_SQUARED 0.21, read-out: LUCIFERASE INFECTION ASSAY - IC50): 7.58 µM
COc1ccc2nc(C)cc(NCc3cccc(C(F)(F)F)c3)c2c1	3.24	–	IC50 (PBLUC_HILL_SLOPE 17.2, PBLUC_R_SQUARED 0.454, read-out: LUCIFERASE INFECTION ASSAY - IC50): 2.85 µM
OC1CCN(c2ccnc3c(-c4ccc(Oc5ccccc5)cc4)cnn23)CC1	7.21	–	IC50 (HEPG2TOX_HILL_SLOPE 2.26, HEPG2TOX_R_SQUARED 0.638, PBLUC_HILL_SLOPE 2.48, PBLUC_R_SQUARED 0.699, read-out: LUCIFERASE INFECTION ASSAY - IC50): 2.98 µM
Nc1c(C(=O)c2ccc3c(c2)NC(=O)CO3)sc2c1c(=O)[nH]c(=O)n2Cc1ccccc1	> 10	–	IC50 (HEPG2TOX_HILL_SLOPE 15, HEPG2TOX_R_SQUARED 0.948, PBLUC_HILL_SLOPE 0.935, PBLUC_R_SQUARED 0.804, read-out: LUCIFERASE INFECTION ASSAY - IC50): 1.58 µM
CC(=O)N1C=Cc2ccccc2C1CC(=O)Nc1ccc(Cl)c(S(=O)(=O)N2CCCC2)c1 (stereo unspecified)	> 10	> 10	–
